From article PMC7044277 (Nature Communications, 2020)
“And” between values parts separate entries of the source, which are not always exact repeats. Equal values may be shown once.

Experiments:
[1] = test system: serotonin receptor of Fig_S10h (subtype not given); test: β-arrestin2 recruitment (Tango), agonist activity, source data Fig_S10h; format: cell-based, human; details: drug alone
DRD5 = DRD5 (Homo sapiens, UniProt P21918); test: β-arrestin2 recruitment (Tango); format: cell-based; details: Fig_S10e, single replicates
DRD4 (D4.4 variant) [2] = target: T1, DRD4 (D4.4 variant) (Homo sapiens, UniProt P21917); test: β-arrestin2 recruitment (Tango); format: cell-based; details: for Fig_S10c concentration-response source data, compound alone (replicates): agonist mode
T1 sequence (P21917 1-419): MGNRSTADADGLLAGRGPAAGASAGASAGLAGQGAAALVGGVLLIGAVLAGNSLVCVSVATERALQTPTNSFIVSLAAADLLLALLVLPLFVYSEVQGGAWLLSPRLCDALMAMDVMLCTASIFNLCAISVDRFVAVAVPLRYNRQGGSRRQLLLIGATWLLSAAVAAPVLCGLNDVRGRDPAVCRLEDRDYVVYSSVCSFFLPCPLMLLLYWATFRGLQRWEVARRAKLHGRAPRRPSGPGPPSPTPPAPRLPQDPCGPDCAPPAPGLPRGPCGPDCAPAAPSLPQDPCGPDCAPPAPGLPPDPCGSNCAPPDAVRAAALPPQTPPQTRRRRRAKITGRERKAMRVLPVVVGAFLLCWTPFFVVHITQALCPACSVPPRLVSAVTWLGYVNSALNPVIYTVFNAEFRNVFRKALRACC

DRD2 (D2 long receptor) = DRD2 (D2 long receptor) (Homo sapiens, UniProt P14416); test: Gαi/o-mediated cAMP inhibition (GloSensor split-luciferase cAMP reporter), HEK293T; format: cell-based; details: DRD2;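 also: compounds applied 15 min at room temperature, then luciferin plus 400 nM isoproterenol to raise cAMP through endogenous β2-adrenergic receptors, luminescence read 15 min later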
[3] = test system: serotonin receptor (subtype not given; reference agonist serotonin); test: β-arrestin2 recruitment (Tango), agonist activity, source data Fig_S10m; format: cell-based, human; details: drug alone
DRD3 F1063.28A = DRD3 F1063.28A (Homo sapiens, UniProt P35462, F106A); test: biochemical; format: binding
DRD2 F1103.28A = DRD2 F1103.28A (Homo sapiens, UniProt P14416, F110A); test: Gαi/o-mediated cAMP inhibition (GloSensor), mutant; format: cell-based; set-up: expressed in transfected cells; host or cells: HEK293T (ATCC CRL-11268)
DRD4 (D4.4 variant) [4] = target: T1, DRD4 (D4.4 variant); test: Gαi/o-mediated cAMP inhibition (GloSensor); format: cell-based; details: DRD4; agonist, cAMP inhibition; read-out: EC50 ± SEM

Sequence of DRD2 (D2 long receptor) (P14416 whole entry): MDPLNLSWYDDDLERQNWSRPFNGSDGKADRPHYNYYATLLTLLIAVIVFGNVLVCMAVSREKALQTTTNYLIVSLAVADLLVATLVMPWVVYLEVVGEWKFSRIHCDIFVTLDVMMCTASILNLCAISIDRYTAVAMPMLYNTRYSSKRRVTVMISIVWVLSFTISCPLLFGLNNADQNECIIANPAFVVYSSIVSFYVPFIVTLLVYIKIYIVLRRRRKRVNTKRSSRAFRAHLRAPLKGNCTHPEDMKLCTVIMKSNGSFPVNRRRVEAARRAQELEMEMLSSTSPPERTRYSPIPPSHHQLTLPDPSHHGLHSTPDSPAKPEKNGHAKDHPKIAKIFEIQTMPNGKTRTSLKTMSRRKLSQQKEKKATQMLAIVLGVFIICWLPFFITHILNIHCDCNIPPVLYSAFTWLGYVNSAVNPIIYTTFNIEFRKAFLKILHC
Sequence of DRD5 (P21918 whole entry): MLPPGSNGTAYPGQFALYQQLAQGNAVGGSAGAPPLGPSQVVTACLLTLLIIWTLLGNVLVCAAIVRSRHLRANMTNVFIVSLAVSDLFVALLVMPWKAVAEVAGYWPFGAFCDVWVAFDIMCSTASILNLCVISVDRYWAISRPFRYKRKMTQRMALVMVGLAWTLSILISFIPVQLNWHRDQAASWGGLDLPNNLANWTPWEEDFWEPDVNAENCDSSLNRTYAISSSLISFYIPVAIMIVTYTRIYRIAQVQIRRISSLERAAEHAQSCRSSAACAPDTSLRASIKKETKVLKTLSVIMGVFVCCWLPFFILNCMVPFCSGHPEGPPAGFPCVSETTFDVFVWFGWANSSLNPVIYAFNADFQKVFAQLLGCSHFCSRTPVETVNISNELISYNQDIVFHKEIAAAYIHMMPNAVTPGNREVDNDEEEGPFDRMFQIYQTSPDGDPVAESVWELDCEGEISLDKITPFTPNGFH
Sequence of DRD2 F1103.28A (P14416 whole entry F110A): as the sequence (P14416 whole entry) above, with F110A counted along it
Sequence of DRD3 F1063.28A (P35462 whole entry F106A): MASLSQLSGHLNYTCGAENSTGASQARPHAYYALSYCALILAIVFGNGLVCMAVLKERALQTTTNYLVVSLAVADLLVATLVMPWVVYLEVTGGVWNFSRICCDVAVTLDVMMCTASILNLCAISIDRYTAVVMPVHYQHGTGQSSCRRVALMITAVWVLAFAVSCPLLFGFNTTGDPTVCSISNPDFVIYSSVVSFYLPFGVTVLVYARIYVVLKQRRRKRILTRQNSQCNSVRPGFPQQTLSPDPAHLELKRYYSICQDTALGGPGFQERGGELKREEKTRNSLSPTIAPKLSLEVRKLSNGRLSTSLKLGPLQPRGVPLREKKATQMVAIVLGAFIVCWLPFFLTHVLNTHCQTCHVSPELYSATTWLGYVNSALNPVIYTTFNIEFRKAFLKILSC

CCOc1cccc2cc([C@H](C)NCC3(O)CCCCC3)oc12 [O4SE6]
response, single replicates of the concentration-response curve ([1]; Log[Drug] -6.52): -7.994
response, single replicates of the concentration-response curve ([1]; Log[Drug] -7): -2.807 and 4.395 and 8.664 and 27.4134 and 13.2513 and 15.6474 and 13.1242 and -2.417 and -10.8222
response, single replicates of the concentration-response curve ([1]; Log[Drug] -7.52): 4.715 and -8.828 and -5.606 and 8.395 and 8.216 and 0.5126 and 3.51 and 4.446 and -3.1317
response, single replicates of the concentration-response curve ([1]; Log[Drug] -8): 0.3826 and 12.2654 and 8.146 and 2.179 and 0.2337 and 9.5034 and -12.0593 and 26.3744 and -3.5174
response, single replicates of the concentration-response curve ([1]; Log[Drug] -8.52): -10.0653 and -1.2658 and 52.2148 and 23.8014 and -4.094 and -12.033 and 16.826 and 7.508 and 15.8147
response, single replicates of the concentration-response curve ([1]; Log[Drug] -9): 1.557 and 9.933 and -1.226 and 2.422 and 13.6662 and 4.675 and -4.947 and 1.153 and 3.825
response, single replicates of the concentration-response curve ([1]; Log[Drug] -9.52): -5.148 and -10.9982 and -7.97 and 11.3845 and 16.9421 and 5.655 and -4.275 and -6.8476 and 18.2512
response, single replicates of the concentration-response curve ([1]; Log[Drug] -10): 15.0958 and 7.486 and 10.8542 and 5.527 and 29.223 and 0.999 and -10.921 and 11.0828 and -0.8457
response, single replicates of the concentration-response curve ([1]; Log[Drug] -10.52): -0.8745 and -6.646 and -1.622 and 20.5398 and 42.3766 and 10.7909 and -7.069 and -20.3001 and 10.2879
response, single replicates of the concentration-response curve ([1]; Log[Drug] -11): -11.3698 and 19.5825 and 1.391 and 36.9549 and 6.363 and -10.581 and 12.6585 and -12.9389 and 3.331
response, single replicates of the concentration-response curve ([1]; Log[Drug] -11.52): -4.741 and 3.94 and 12.3959 and 19.2666 and -9.551 and -8.707 and 10.8288 and -0.4553 and -7.722
response, single replicates of the concentration-response curve ([1]; Log[Drug] -12): -3.8669 and -1.214 and 2.909 and 15.2183 and 14.2098 and -8.421 and -4.75 and -12.1063 and 12.6538
β-arrestin2 recruitment response, agonist mode (normalized) (DRD5; Log[Drug] -6.52): -0.08982
β-arrestin2 recruitment response, agonist mode (normalized) (DRD5; Log[Drug] -7): -2.193 and 0.1162 and 2.002 and 1.631 and 1.978 and 0.5459 and 0.4001 and 1.786 and 0.382
β-arrestin2 recruitment response, agonist mode (normalized) (DRD5; Log[Drug] -7.52): -0.08982 and 3.931 and 2.6523 and 1.599 and 1.463 and 1.719 and -0.1199 and 3.905 and 0.3346
β-arrestin2 recruitment response, agonist mode (normalized) (DRD5; Log[Drug] -8): -0.07925 and -1.147 and -0.7291 and 1.435 and 1.941 and 1.528 and 1.952 and 2.3308 and 0.6078
β-arrestin2 recruitment response, agonist mode (normalized) (DRD5; Log[Drug] -8.52): -0.1004 (2×) and 1.601 and 1.441 and 1.882 and 1.748 and 1.175 and 1.334 and 1.6784
β-arrestin2 recruitment response, agonist mode (normalized) (DRD5; Log[Drug] -9): 3.899 and 5.394 and 1.786 and 1.099 and 0.04193 and 2.45 and 0.1533 and 0.5646 and 0.6189
β-arrestin2 recruitment response, agonist mode (normalized) (DRD5; Log[Drug] -9.52): 2.219 and 0.0951 and 1.997 and 0.5791 and 1.124 and 2.067 and 5.639 and 0.941 and -0.06273
β-arrestin2 recruitment response, agonist mode (normalized) (DRD5; Log[Drug] -10): -0.7133 and 0.5389 and 5.595 and 1.6 and 2.167 and 2.288 and 0.7068 and 0.5423 and 3.676
β-arrestin2 recruitment response, agonist mode (normalized) (DRD5; Log[Drug] -10.52): 0.1321 and 0.1268 and 0.9299 and 1.442 and 0.235 and 1.403 and 0.9967 and 3.2411 and 1.093
β-arrestin2 recruitment response, agonist mode (normalized) (DRD5; Log[Drug] -11): 0.1268 and 0.1004 and 7.307 and 0.5831 and 0.6598 and 1.285 and 1.949 and 0.03067 and 2.569
β-arrestin2 recruitment response, agonist mode (normalized) (DRD5; Log[Drug] -11.52): 3.508 and 1.358 and 1.781 and 0.8196 and 0.1076 and 1.003 and 0.8127 and 3.51 and 1.499
β-arrestin2 recruitment response, agonist mode (normalized) (DRD5; Log[Drug] -12): -0.3064 and 5.8435 and 1.717 and 0.4312 and 3.455 and 0.3038 and 0.3541 and 3.032 and 0.3527
EC50 (DRD4 (D4.4 variant) [2]; DRD4, Tango, read-out: EC50 ± SEM): > 10 µM
Fig_S10c concentration-response source data, compound alone (replicates) (DRD4 (D4.4 variant) [2]; Log[Drug] -5): 6.217 and 2.763 and 2.001 and 1.287 and 1.775 and 4.058 and 4.003 and 0.06427 and 0.2106
Fig_S10c concentration-response source data, compound alone (replicates) (DRD4 (D4.4 variant) [2]; Log[Drug] -5.52): 2.6039 and -1.106 and -1.946 and -0.4701 and 1.404 and 2.39 and 0.8979 and 0.0552 and 0.08381
β-arrestin2 recruitment response at DRD4 (source data, replicate values) (DRD4 (D4.4 variant) [2]; Log[Drug] -6): 2.086
Fig_S10c concentration-response source data, compound alone (replicates) (DRD4 (D4.4 variant) [2]; Log[Drug] -6): 3.584 and -1.188 and -0.584 and -0.6588 and 0.8796 and 1.83 and 0.7762 and 0.03516 and 0.171
β-arrestin2 recruitment response at DRD4 (source data, replicate values) (DRD4 (D4.4 variant) [2]; Log[Drug] -6.52): 1.505 and 1.478 and 5.593 and -1.936 and -0.8155 and 0.5983 and 2.508 and 1.037 and -0.4712
Fig_S10c concentration-response source data, compound alone (replicates) (DRD4 (D4.4 variant) [2]; Log[Drug] -6.52): 1.007 and 4.325 and 1.323 and -0.8974 and 1.527 and -0.05366 and -0.1047 and 0.03541 and 0.08444
β-arrestin2 recruitment response at DRD4 (source data, replicate values) (DRD4 (D4.4 variant) [2]; Log[Drug] -7): 2.288 and 4.238 and 0.7634 and -1.02 and 3.3404 and -2.026 and 1.575 and 0.945 and -0.6741
Fig_S10c concentration-response source data, compound alone (replicates) (DRD4 (D4.4 variant) [2]; Log[Drug] -7): 1.079 and -1.731 and -1.221 and -1.369 and 0.6898 and 0.678 and 1.948 and 0.1059 and 0.1355
β-arrestin2 recruitment response at DRD4 (source data, replicate values) (DRD4 (D4.4 variant) [2]; Log[Drug] -7.52): 1.649 and 0.1326 and 3.251 and -1.741 and -0.5217 and -0.1424 and -0.5236 and 0.6819 and 0.4869
β-arrestin2 recruitment response at DRD4 (source data, replicate values) (DRD4 (D4.4 variant) [2]; Log[Drug] -8): 0.1559 and 0.6003 and -0.215 and 3.989 and -1.66 and -2.089 and 1.626 and 2.253 and 0.1073
β-arrestin2 recruitment response at DRD4 (source data, replicate values) (DRD4 (D4.4 variant) [2]; Log[Drug] -8.52): 0.09319 and 0.08781 and 1.238 and -1.884 and -2.01 and 2.354 and 0.733 and 0.839 and 0.1558
β-arrestin2 recruitment response at DRD4 (source data, replicate values) (DRD4 (D4.4 variant) [2]; Log[Drug] -9): 1.025 and 0.8745 and 0.8477 and 1.633 and -1.008 and -1.74 and 1.682 and 0.09555 and 2.31
β-arrestin2 recruitment response at DRD4 (source data, replicate values) (DRD4 (D4.4 variant) [2]; Log[Drug] -9.52): 1.007 and 1.419 and 7.892 and -0.8689 and -1.296 and 0.8476 and 1.4149 and 0.894 and 0.2094
β-arrestin2 recruitment response at DRD4 (source data, replicate values) (DRD4 (D4.4 variant) [2]; Log[Drug] -10): 1.797 and 0.7921 and 2.561 and -1.944 and -1.43 and -2.445 and 0.6793 and 0.5811 (2×)
β-arrestin2 recruitment response at DRD4 (source data, replicate values) (DRD4 (D4.4 variant) [2]; Log[Drug] -10.52): 1.808 and 0.4319 and 2.3763 and 1.191 and 0.9847 and -1.294 and 0.1099 and -0.2474 and -0.3547
β-arrestin2 recruitment response at DRD4 (source data, replicate values) (DRD4 (D4.4 variant) [2]; Log[Drug] -11): 0.1559 and 1.383 and -0.06631 and 0.9882 and -1.444 and -1.642 and 1.271 and -0.5746 and 1.065
β-arrestin2 recruitment response at DRD4 (source data, replicate values) (DRD4 (D4.4 variant) [2]; Log[Drug] -11.52): -0.1308 and 0.7778 and 1.385 and -1.934 and -1.503 and -0.7069 and -0.466 and 1.013 and -1.209
EC50 (DRD2 (D2 long receptor); agonist, Gαi/o-mediated cAMP inhibition, read-out: EC50 ± SEM): 18.4 nM
G protein agonist activity (DRD2 (D2 long receptor); cAMP inhibition): selective DRD2 agonist
Emax (DRD2 (D2 long receptor); HEK-293T, read-out: Emax relative to quinpirole response, cAMP inhibition): 91.9%
response, Fig_S10m, replicate values ([3]; Log[Drug] -10): -3 and -0.8547 and -1.711 and 1.274 and 0.6519 and 0.6372 and 3.446 and 2.684 and 1.5611
response, Fig_S10m, replicate values ([3]; Log[Drug] -10.52): -1.057 and 0.5825 and 1.112 and 0.2883 and -0.05325 and 2.637 and -1.4637 and 2.006 and 9.099
response, Fig_S10m, replicate values ([3]; Log[Drug] -11): -3.4971 and -1.766 and 0.3518 and 1.196 and 0.9733 and 1.78 and -2.611 and -3.973 and 1.645
response, Fig_S10m, replicate values ([3]; Log[Drug] -11.52): -2.165 and -1.698 and -2.094 and 0.786 and 2.079 and 0.9742 and -3.099 and -0.8266 and -0.3396
response, Fig_S10m, replicate values ([3]; Log[Drug] -12): 0.1375 and -0.9459 and 1.244 and -0.4049 and 1.325 and 0.3957 and -1.831 and -2.73 and 1.919
Ki (DRD3 F1063.28A): 1910 nM
EC50 (DRD2 F1103.28A): > 10 µM
EC50 (DRD4 (D4.4 variant) [4]): > 10 µM
